What was measured:
[1] = test system: patients with advanced solid tumors; experiment: Safety; format: in vivo, human; settings: Part A
[2] = test system: DNA-PK; settings: previous studies; cited from earlier work
[3] = Peposertib plasma pharmacokinetics, Part A; format: in vivo, human; settings: Parts A and B

SMILES: COc1ccc([C@@H](O)c2cc(-c3ncnc4cc(N5CCOCC5)ccc34)c(F)cc2Cl)nn1 [Peposertib]
- IRR ([1]; 100 mg b.i.d., all grade): 0 n (%)
- Immune-related AE ([1]; 100 mg b.i.d., all grade): 0 n (%)
- Serious TEAE ([1]; 100 mg b.i.d., all grade): 0 n (%)
- Serious TEAE, peposertib related ([1]; 100 mg b.i.d., all grade): 0 n (%)
- Serious TEAE, treatment related ([1]; 100 mg b.i.d., all grade): 0 n (%)
- TEAE ([1]; 100 mg b.i.d., all grade): 3 (75.0) n (%)
- TEAE, peposertib related ([1]; 100 mg b.i.d., all grade): 2 (50.0) n (%)
- TEAE, treatment related ([1]; 100 mg b.i.d., all grade): 3 (75.0) n (%)
- TEAEs leading to death ([1]; 100 mg b.i.d., all grade): 0 n (%)
- Treatment-related AE leading to death ([1]; 100 mg b.i.d., all grade): 0 n (%)
- IRR ([1]; 100 mg b.i.d., grade ≥3): 0 n (%)
- Immune-related AE ([1]; 100 mg b.i.d., grade ≥3): 0 n (%)
- Serious TEAE ([1]; 100 mg b.i.d., grade ≥3): 0 n (%)
- Serious TEAE, peposertib related ([1]; 100 mg b.i.d., grade ≥3): 0 n (%)
- Serious TEAE, treatment related ([1]; 100 mg b.i.d., grade ≥3): 0 n (%)
- TEAE ([1]; 100 mg b.i.d., grade ≥3): 0 n (%)
- TEAE, peposertib related ([1]; 100 mg b.i.d., grade ≥3): 0 n (%)
- TEAE, treatment related ([1]; 100 mg b.i.d., grade ≥3): 0 n (%)
- TEAEs leading to death ([1]; 100 mg b.i.d., grade ≥3): 0 n (%)
- Treatment-related AE leading to death ([1]; 100 mg b.i.d., grade ≥3): 0 n (%)
- Immune-related AE ([1]; 200 mg b.i.d., all grade): 2 (18.2) n (%)
- Serious TEAE ([1]; 200 mg b.i.d., all grade): 6 (54.5) n (%)
- Serious TEAE, peposertib related ([1]; 200 mg b.i.d., all grade): 0 n (%)
- Serious TEAE, treatment related ([1]; 200 mg b.i.d., all grade): 3 (27.3) n (%)
- TEAE ([1]; 200 mg b.i.d., all grade): 11 (100.0) n (%)
- TEAE, peposertib related ([1]; 200 mg b.i.d., all grade): 10 (90.9) n (%)
- TEAE, treatment related ([1]; 200 mg b.i.d., all grade): 10 (90.9) n (%)
- TEAEs leading to death ([1]; 200 mg b.i.d., all grade): 0 n (%)
- Treatment-related AE leading to death ([1]; 200 mg b.i.d., all grade): 0 n (%)
- IRR ([1]; 200 mg b.i.d., grade ≥3): 0 n (%)
- Immune-related AE ([1]; 200 mg b.i.d., grade ≥3): 2 (18.2) n (%)
- Serious TEAE ([1]; 200 mg b.i.d., grade ≥3): 6 (54.5) n (%)
- Serious TEAE, peposertib related ([1]; 200 mg b.i.d., grade ≥3): 0 n (%)
- Serious TEAE, treatment related ([1]; 200 mg b.i.d., grade ≥3): 3 (27.3) n (%)
- TEAE ([1]; 200 mg b.i.d., grade ≥3): 7 (63.6) n (%)
- TEAE, peposertib related ([1]; 200 mg b.i.d., grade ≥3): 2 (18.2) n (%)
- TEAE, treatment related ([1]; 200 mg b.i.d., grade ≥3): 4 (36.4) n (%)
- TEAEs leading to death ([1]; 200 mg b.i.d., grade ≥3): 0 n (%)
- Treatment-related AE leading to death ([1]; 200 mg b.i.d., grade ≥3): 0 n (%)
- Peposertib-related pneumonitis ([1]; 250 mg b.i.d.): 25.0%
- Serious TEAE: diarrhea ([1]; 250 mg b.i.d.): 2 n
- IRR ([1]; 250 mg b.i.d., all grade): 0 n (%)
- Immune-related AE ([1]; 250 mg b.i.d., all grade): 3 (75.0) n (%)
- Serious TEAE ([1]; 250 mg b.i.d., all grade): 4 (100.0) n (%)
- Serious TEAE, peposertib related ([1]; 250 mg b.i.d., all grade): 2 (50.0) n (%)
- Serious TEAE, treatment related ([1]; 250 mg b.i.d., all grade): 3 (75.0) n (%)
- TEAE ([1]; 250 mg b.i.d., all grade): 4 (100.0) n (%)
- TEAE, peposertib related ([1]; 250 mg b.i.d., all grade): 3 (75.0) n (%)
- TEAE, treatment related ([1]; 250 mg b.i.d., all grade): 3 (75.0) n (%)
- TEAEs leading to death ([1]; 250 mg b.i.d., all grade): 0 n (%)
- Treatment-related AE leading to death ([1]; 250 mg b.i.d., all grade): 0 n (%)
- IRR ([1]; 250 mg b.i.d., grade ≥3): 0 n (%)
- Immune-related AE ([1]; 250 mg b.i.d., grade ≥3): 2 (50.0) n (%)
- Serious TEAE ([1]; 250 mg b.i.d., grade ≥3): 4 (100.0) n (%)
- Serious TEAE, peposertib related ([1]; 250 mg b.i.d., grade ≥3): 2 (50.0) n (%)
- Serious TEAE, treatment related ([1]; 250 mg b.i.d., grade ≥3): 3 (75.0) n (%)
- TEAE ([1]; 250 mg b.i.d., grade ≥3): 4 (100.0) n (%)
- TEAE, peposertib related ([1]; 250 mg b.i.d., grade ≥3): 2 (50.0) n (%)
- TEAE, treatment related ([1]; 250 mg b.i.d., grade ≥3): 3 (75.0) n (%)
- TEAEs leading to death ([1]; 250 mg b.i.d., grade ≥3): 0 n (%)
- Treatment-related AE leading to death ([1]; 250 mg b.i.d., grade ≥3): 0 n (%)
- Serious TEAE: disease progression ([1]; 300 mg b.i.d.): 2 n
- IRR ([1]; 300 mg b.i.d., all grade): 0 n (%)
- Immune-related AE ([1]; 300 mg b.i.d., all grade): 2 (33.3) n (%)
- Serious TEAE ([1]; 300 mg b.i.d., all grade): 4 (66.7) n (%)
- Serious TEAE, peposertib related ([1]; 300 mg b.i.d., all grade): 0 n (%)
- Serious TEAE, treatment related ([1]; 300 mg b.i.d., all grade): 1 (16.7) n (%)
- TEAE ([1]; 300 mg b.i.d., all grade): 6 (100.0) n (%)
- TEAE, peposertib related ([1]; 300 mg b.i.d., all grade): 3 (50.0) n (%)
- TEAE, treatment related ([1]; 300 mg b.i.d., all grade): 4 (66.7) n (%)
- TEAEs leading to death ([1]; 300 mg b.i.d., all grade): 2 (33.3) n (%)
- Treatment-related AE leading to death ([1]; 300 mg b.i.d., all grade): 0 n (%)
- IRR ([1]; 300 mg b.i.d., grade ≥3): 0 n (%)
- Immune-related AE ([1]; 300 mg b.i.d., grade ≥3): 2 (33.3) n (%)
- Serious TEAE ([1]; 300 mg b.i.d., grade ≥3): 4 (66.7) n (%)
- Serious TEAE, peposertib related ([1]; 300 mg b.i.d., grade ≥3): 0 n (%)
- Serious TEAE, treatment related ([1]; 300 mg b.i.d., grade ≥3): 1 (16.7) n (%)
- TEAE ([1]; 300 mg b.i.d., grade ≥3): 5 (83.3) n (%)
- TEAE, peposertib related ([1]; 300 mg b.i.d., grade ≥3): 0 n (%)
- TEAE, treatment related ([1]; 300 mg b.i.d., grade ≥3): 2 (33.3) n (%)
- TEAEs leading to death ([1]; 300 mg b.i.d., grade ≥3): 2 (33.3) n (%)
- Treatment-related AE leading to death ([1]; 300 mg b.i.d., grade ≥3): 0 n (%)
- IRR ([1]; 400 mg b.i.d., all grade): 0 n (%)
- Immune-related AE ([1]; 400 mg b.i.d., all grade): 1 (25.0) n (%)
- Serious TEAE ([1]; 400 mg b.i.d., all grade): 4 (100.0) n (%)
- Serious TEAE, peposertib related ([1]; 400 mg b.i.d., all grade): 3 (75.0) n (%)
- Serious TEAE, treatment related ([1]; 400 mg b.i.d., all grade): 3 (75.0) n (%)
- TEAE ([1]; 400 mg b.i.d., all grade): 4 (100.0) n (%)
- TEAE, peposertib related ([1]; 400 mg b.i.d., all grade): 4 (100.0) n (%)
- TEAE, treatment related ([1]; 400 mg b.i.d., all grade): 4 (100.0) n (%)
- TEAEs leading to death ([1]; 400 mg b.i.d., all grade): 0 n (%)
- Treatment-related AE leading to death ([1]; 400 mg b.i.d., all grade): 0 n (%)
- IRR ([1]; 400 mg b.i.d., grade ≥3): 0 n (%)
- Immune-related AE ([1]; 400 mg b.i.d., grade ≥3): 1 (25.0) n (%)
- Serious TEAE ([1]; 400 mg b.i.d., grade ≥3): 4 (100.0) n (%)
- Serious TEAE, peposertib related ([1]; 400 mg b.i.d., grade ≥3): 3 (75.0) n (%)
- Serious TEAE, treatment related ([1]; 400 mg b.i.d., grade ≥3): 3 (75.0) n (%)
- TEAE ([1]; 400 mg b.i.d., grade ≥3): 4 (100.0) n (%)
- TEAE, peposertib related ([1]; 400 mg b.i.d., grade ≥3): 4 (100.0) n (%)
- TEAE, treatment related ([1]; 400 mg b.i.d., grade ≥3): 4 (100.0) n (%)
- TEAEs leading to death ([1]; 400 mg b.i.d., grade ≥3): 0 n (%)
- Treatment-related AE leading to death ([1]; 400 mg b.i.d., grade ≥3): 0 n (%)
- Discontinuation of all study treatments due to AEs ([1]; all dose levels): 11 (37.9%)
- Peposertib-related TEAE: fatigue ([1]; all dose levels): 8 (27.6%)
- Peposertib-related TEAE: nausea ([1]; all dose levels): 9 (31.0%)
- Peposertib-related TEAE: vomiting ([1]; all dose levels): 9 (31.0%)
- DNA-PK inhibition [2]: time- and concentration-dependent manner
- Peposertib exposure versus dose ([3]; across all dose levels after single or multiple (q.d. and b.i.d.) doses): generally proportional to the dose
- Accumulation ([3]; after q.d. and b.i.d. dosing): Some accumulation was observed
